Source: PMC10066365, “Nemacol is a small molecule inhibitor of C. elegans vesicular acetylcholine transporter with anthelmintic potential” (Nature Communications, 2023)
Several values for one entry are separate records, joined by “and”; a condition that tells them apart may be missing. Equal values may be shown once.

Tested on: C. elegans
Experiment: C. elegans motor phenotype scoring on solid media (Punc/jerky-unc, coiled, paralyzed), wild-type young adults
Assay type: in vivo, Caenorhabditis elegans
Settings: for any phene, mean % fraction of young adults exhibiting any phenotype (coiled, jerky-Unc or paralyzed) / atypical locomotion (number of animals) / coiled (number of animals) / no phene (number of animals) / paralyzed (number of animals): one hour; for any phene, mean % fraction of young adults exhibiting any phenotype (coiled, jerky-Unc or paralyzed): mean of three biological replicates; for atypical locomotion (number of animals) / coiled (number of animals) / no phene (number of animals) / paralyzed (number of animals): young adults, 20 animals per trial, single replicate counts; for AVERAGES Fraction Coiled / AVERAGES Fraction Paralyzed / AVERAGES Fraction Punc: mean of 3 replicates; for Fraction Coiled / Fraction Paralyzed / Fraction Punc: single replicate

**Q.** `CCC1CCC(N2CCN(c3ccc([N+](=O)[O-])cc3)CC2)CC1` (centres unmarked) [Nemacol-2] was tested. Which “any phene, mean % fraction of young adults exhibiting any phenotype (coiled, jerky-Unc or paralyzed)” value (3.75uM) did it give?
**A.** 29.1667%

**Q.** What about the “atypical locomotion (number of animals)” value (3.75uM) of the same molecule?
**A.** 5 and 8 and 2 and 3 and 9

**Q.** And the “coiled (number of animals)” value (3.75uM)?
**A.** 0

**Q.** What about the “no phene (number of animals)” value (3.75uM) of the same molecule?
**A.** 15 and 12 and 18 and 17 and 11

**Q.** What about the “paralyzed (number of animals)” value (3.75uM) of the same molecule?
**A.** 0

**Q.** And the “NP (number of animals)” value (15 μM, 30 min, adults)?
**A.** 5 and 7 and 10

**Q.** What about the “P (number of animals)” value (15 μM, 30 min, adults) of the same molecule?
**A.** 0

**Q.** What about the “Punc (number of animals)” value (15 μM, 30 min, adults) of the same molecule?
**A.** 10 and 9 and 8

**Q.** What about the “AVERAGES Fraction Coiled” value (15 μM, 30 min, adults) of the same molecule?
**A.** 0.0926

**Q.** What about the “AVERAGES Fraction Paralyzed” value (15 μM, 30 min, adults) of the same molecule?
**A.** 0.0

**Q.** And the “AVERAGES Fraction Punc” value (15 μM, 30 min, adults)?
**A.** 0.5

**Q.** And the “Fraction Coiled” value (15 μM, 30 min, adults)?
**A.** 0.167 and 0.111 and 0.0

**Q.** And the “Fraction Paralyzed” value (15 μM, 30 min, adults)?
**A.** 0.0

**Q.** What about the “Fraction Punc” value (15 μM, 30 min, adults) of the same molecule?
**A.** 0.556 and 0.5 and 0.444

**Q.** And the “C2 (number of animals)” value (15 μM, 60 min, adults)?
**A.** 2 and 1

**Q.** And the “P (number of animals)” value (15 μM, 60 min, adults)?
**A.** 0

**Q.** What about the “Punc (number of animals)” value (15 μM, 60 min, adults) of the same molecule?
**A.** 14 and 15

**Q.** And the “AVERAGES Fraction Coiled” value (15 μM, 60 min, adults)?
**A.** 0.13

**Q.** And the “AVERAGES Fraction Paralyzed” value (15 μM, 60 min, adults)?
**A.** 0.0

**Q.** What about the “AVERAGES Fraction Punc” value (15 μM, 60 min, adults) of the same molecule?
**A.** 0.8

**Q.** And the “Fraction Coiled” value (15 μM, 60 min, adults)?
**A.** 0.111 and 0.167

**Q.** And the “Fraction Paralyzed” value (15 μM, 60 min, adults)?
**A.** 0.0

**Q.** And the “Fraction Punc” value (15 μM, 60 min, adults)?
**A.** 0.8

**Q.** What about the “C2 (number of animals)” value (15 μM, 90 min, adults) of the same molecule?
**A.** 1 and 2

**Q.** And the “P (number of animals)” value (15 μM, 90 min, adults)?
**A.** 0

**Q.** And the “Punc (number of animals)” value (15 μM, 90 min, adults)?
**A.** 15 and 11

**Q.** And the “AVERAGES Fraction Coiled” value (15 μM, 90 min, adults)?
**A.** 0.113

**Q.** And the “AVERAGES Fraction Paralyzed” value (15 μM, 90 min, adults)?
**A.** 0.0

**Q.** What about the “AVERAGES Fraction Punc” value (15 μM, 90 min, adults) of the same molecule?
**A.** 0.8

**Q.** What about the “Fraction Coiled” value (15 μM, 90 min, adults) of the same molecule?
**A.** 0.111 and 0.118

**Q.** What about the “Fraction Paralyzed” value (15 μM, 90 min, adults) of the same molecule?
**A.** 0.0

**Q.** And the “Fraction Punc” value (15 μM, 90 min, adults)?
**A.** 0.8 and 0.647

**Q.** What about the “Punc (number of animals)” value (15 μM, 120 min, adults) of the same molecule?
**A.** 11 and 7

**Q.** And the “AVERAGES Fraction Coiled” value (15 μM, 120 min, adults)?
**A.** 0.0741

**Q.** What about the “AVERAGES Fraction Paralyzed” value (15 μM, 120 min, adults) of the same molecule?
**A.** 0.0185

**Q.** What about the “AVERAGES Fraction Punc” value (15 μM, 120 min, adults) of the same molecule?
**A.** 0.537

**Q.** And the “Fraction Coiled” value (15 μM, 120 min, adults)?
**A.** 0.0556 and 0.111

**Q.** And the “Fraction Paralyzed” value (15 μM, 120 min, adults)?
**A.** 0.0 and 0.0556

**Q.** What about the “Fraction Punc” value (15 μM, 120 min, adults) of the same molecule?
**A.** 0.6 and 0.4

**Q.** What about the “C1 (number of animals)” value (15 μM, 240 min, adults) of the same molecule?
**A.** 0

**Q.** What about the “C2 (number of animals)” value (15 μM, 240 min, adults) of the same molecule?
**A.** 0

**Q.** And the “NP (number of animals)” value (15 μM, 240 min, adults)?
**A.** 8 and 12 and 15

**Q.** And the “P (number of animals)” value (15 μM, 240 min, adults)?
**A.** 0

**Q.** And the “AVERAGES Fraction Coiled” value (15 μM, 240 min, adults)?
**A.** 0.037

**Q.** And the “AVERAGES Fraction Paralyzed” value (15 μM, 240 min, adults)?
**A.** 0.0741

**Q.** And the “AVERAGES Fraction Punc” value (15 μM, 240 min, adults)?
**A.** 0.6

**Q.** And the “Fraction Coiled” value (15 μM, 240 min, adults)?
**A.** 0.0 and 0.111

**Q.** And the “Fraction Paralyzed” value (15 μM, 240 min, adults)?
**A.** 0.0 and 0.111

**Q.** What about the “Fraction Punc” value (15 μM, 240 min, adults) of the same molecule?
**A.** 0.556 and 0.6

**Q.** And the “C1 (number of animals)” value (15 μM, 360 min, adults)?
**A.** 0

**Q.** And the “NP (number of animals)” value (15 μM, 360 min, adults)?
**A.** 14 and 9 and 17

**Q.** And the “AVERAGES Fraction Coiled” value (15 μM, 360 min, adults)?
**A.** 0.037

**Q.** And the “AVERAGES Fraction Paralyzed” value (15 μM, 360 min, adults)?
**A.** 0.0185

**Q.** And the “AVERAGES Fraction Punc” value (15 μM, 360 min, adults)?
**A.** 0.2

**Q.** And the “Fraction Coiled” value (15 μM, 360 min, adults)?
**A.** 0.0 and 0.111

**Q.** What about the “Fraction Paralyzed” value (15 μM, 360 min, adults) of the same molecule?
**A.** 0.0 and 0.0556

**Q.** What about the “Fraction Punc” value (15 μM, 360 min, adults) of the same molecule?
**A.** 0.222 and 0.333 and 0.0556

**Q.** What about the “Next Day Animals alive (moving fine)” value (15 μM, next day, adults) of the same molecule?
**A.** alive, recovered

**Q.** And the “any phene, mean % fraction of young adults exhibiting any phenotype (coiled, jerky-Unc or paralyzed)” value (15uM)?
**A.** 95.873%

**Q.** And the “atypical locomotion (number of animals)” value (15uM)?
**A.** 10 and 11 and 18 and 13

**Q.** And the “coiled (number of animals)” value (15uM)?
**A.** 5 and 2 and 4

**Q.** What about the “no phene (number of animals)” value (15uM) of the same molecule?
**A.** 0 and 2 and 1

**Q.** And the “paralyzed (number of animals)” value (15uM)?
**A.** 5 and 2 and 0 and 3

**Q.** And the “C1 (number of animals)” value (30 μM, 30 min, adults)?
**A.** 3 and 2

**Q.** What about the “Punc (number of animals)” value (30 μM, 30 min, adults) of the same molecule?
**A.** 10 and 11 and 16

**Q.** What about the “AVERAGES Fraction Coiled” value (30 μM, 30 min, adults) of the same molecule?
**A.** 0.246

**Q.** And the “AVERAGES Fraction Paralyzed” value (30 μM, 30 min, adults)?
**A.** 0.0185

**Q.** What about the “AVERAGES Fraction Punc” value (30 μM, 30 min, adults) of the same molecule?
**A.** 0.7

**Q.** What about the “Fraction Coiled” value (30 μM, 30 min, adults) of the same molecule?
**A.** 0.333 and 0.3 and 0.111

**Q.** What about the “Fraction Paralyzed” value (30 μM, 30 min, adults) of the same molecule?
**A.** 0.0556 and 0.0

**Q.** What about the “Fraction Punc” value (30 μM, 30 min, adults) of the same molecule?
**A.** 0.556 and 0.647 and 0.9

**Q.** What about the “NP (number of animals)” value (30 μM, 60 min, adults) of the same molecule?
**A.** 0

**Q.** What about the “Punc (number of animals)” value (30 μM, 60 min, adults) of the same molecule?
**A.** 7 and 8 and 13

**Q.** And the “AVERAGES Fraction Coiled” value (30 μM, 60 min, adults)?
**A.** 0.3

**Q.** What about the “AVERAGES Fraction Paralyzed” value (30 μM, 60 min, adults) of the same molecule?
**A.** 0.167

**Q.** What about the “AVERAGES Fraction Punc” value (30 μM, 60 min, adults) of the same molecule?
**A.** 0.5

**Q.** And the “Fraction Coiled” value (30 μM, 60 min, adults)?
**A.** 0.4 and 0.333 and 0.222

**Q.** What about the “Fraction Paralyzed” value (30 μM, 60 min, adults) of the same molecule?
**A.** 0.222 and 0.0556

**Q.** And the “Fraction Punc” value (30 μM, 60 min, adults)?
**A.** 0.4 and 0.444 and 0.7

**Q.** And the “NP (number of animals)” value (30 μM, 90 min, adults)?
**A.** 0

**Q.** What about the “P (number of animals)” value (30 μM, 90 min, adults) of the same molecule?
**A.** 5 and 3

**Q.** What about the “Punc (number of animals)” value (30 μM, 90 min, adults) of the same molecule?
**A.** 8 and 10 and 12

**Q.** What about the “AVERAGES Fraction Coiled” value (30 μM, 90 min, adults) of the same molecule?
**A.** 0.241

**Q.** And the “AVERAGES Fraction Paralyzed” value (30 μM, 90 min, adults)?
**A.** 0.2

**Q.** And the “AVERAGES Fraction Punc” value (30 μM, 90 min, adults)?
**A.** 0.556

**Q.** And the “Fraction Coiled” value (30 μM, 90 min, adults)?
**A.** 0.278 and 0.167
